# Literature values, collected in patent US6740655B2, “Pyrimidine carboxamides useful as inhibitors of PDE4 isozymes” (Pfizer Inc, priority 2000, dated 2004).
# “Also recorded” adds a separate entry of the source. Where two headings read alike, the source gives them in different places.
# Experiments:
# [1] = tested on: high-affinity rolipram binding site (Sr)
# [2] = tested on: inflammatory parameters, atopic dermatitis
# [3] = in vivo
# [4] = tested on: lipopolysaccharide-induced bowel erythrocyte extravasation; details: rats; b385: pretreatment i.p. 3×, pentoxifylline 5 to 50, rolipram 10 to 30, debufylline 0.1 to 3 mg/kg
# [5] = tested on: lipopolysaccharide-induced mesenteric blood flow fall
# [6] = tested on: T-cell mediated hepatic failure; details: mouse, in vivo
# [7] = tested on: antigen-induced eosinophilia; details: rat
# [8] = doses up to 400 mg, 54 subjects
# [9] = rat
# [10] = tested on: late reactions to inhaled allergen; details: b18: 9.5 days oral, 15 and 30 mg
# allergic rhinitis = details: in vivo
# tumor cells = details: at micromolar concentrations
structure (smiles),measurement,setting,value
"COc1ccc(C2CNC(=O)NC2)cc1OC1CC2CCC1C2 (stereo not drawn) [CP-80,633]",affinity at the Sr,[1],high affinity
same,adverse effects,"[2]; human, in vivo",no adverse effects
same,inflammatory parameters,"[2]; topical, bilaterally over eight days, twenty patients",effectively inhibit all of the inflammatory parameters tested
same,emesis / nausea and vomiting,[3],elicit emesis
O=S1(=O)CCN(c2nc(NC3CC3)nc(C3CC3)n2)C1 [Formula (0.0.56)],relaxant activity in guinea-pig trachea model,guinea-pig trachea,potent relaxant agents
COc1ccc(CC2CNC(=O)N2)cc1OC1CCCC1 (stereo not drawn) [Ro 20-1724],adverse systemic or cutaneous effects,psoriatic lesions; in vivo,without adverse systemic or cutaneous effects
same,effect on psoriatic lesions,psoriatic lesions; versus vehicle,improve psoriatic lesions
COc1ccc(C2CNC(=O)C2)cc1OC1CCCC1 (stereo not drawn) [rolipram],lipopolysaccharide-induced bowel erythrocyte extravasation,[4],attenuated
same,intestinal hypoperfusion in dogs,[5],attenuated
same,concanavalin A-induced IL4 release,[6],suppress
COC(=O)c1ccc2c(=O)n(C3NC(c4ccccc4)c4cc(N)cc5c4N(CC5)C3=O)cnc2c1 (stereo not drawn) [Formula (0.0.53)],IC50,PDE4 from U937 cells; read-out: IC50 against the PDE4 from U937 cells,3 nM
COc1cc2c3c(c1)C(c1ccccc1)=N[C@@H](NC(=O)c1cc4ccccc4cn1)C(=O)N3CC2 [Cl-1018],inhibition of antigen-induced eosinophilia,[7],active
same,oral potency ED50,[7]; oral,5 mg/kg
same,adverse events,[8],no adverse events were reported
same,IC50,PDE4 from U937 cells; read-out: IC50 PDE4 in U937 cells,1100 nM
same,oral bioavailability,[9],57%
COc1ccc([C@H](Cc2ccncc2)c2ccccc2)cc1OC1CCCC1 [CDP840],late reactions / late-phase response,[10],suppression of late reactions; also recorded: significant inhibition of late-phase response
Cc1[nH]c(=O)c(C#N)cc1-c1ccncc1 [milrinone],relaxant activities of isoproterenol and forskolin,pulmonary artery rings,The same effect has been observed
"O=C(Nc1c(Cl)cncc1Cl)C(=O)c1cn(Cc2ccc(F)cc2)c2ccc(O)cc12 [AWD-12,281]",activity in rat model of allergic rhinitis,allergic rhinitis,active
CCCCn1c(=O)c2c(ncn2CC(C)=O)n(CCCC)c1=O [denbufylline],lipopolysaccharide-induced bowel erythrocyte extravasation,[4],attenuated
same,intestinal hypoperfusion in dogs,[5],attenuated
CC1CC1c1nc(NC2CC2)nc(N2CCOCC2)n1 (stereo not drawn) [Formula (0.0.57)],relaxant activity in guinea-pig trachea model,guinea-pig trachea,potent relaxant agents
O=C(NC1NC(c2ccccc2)c2cccc3c2N(CC3)C1=O)c1ccncc1 (stereo not drawn) [PD-168787],inhibition of antigen-induced eosinophilia,[7],activity
Clc1nc2c(N3CCCC3)nc(N3CCNCC3)nc2nc1NCc1ccccc1 [Formula (0.0.55)],growth of tumor cells,tumor cells,inhibit the growth of tumor cells
